According to PubChem BioAssay (NCI):
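The compound was tested at five concentrations on cells cultured in 96-well plates, with a 48-hour exposure period. GI50 is the concentration that inhibits growth by half. TGI is the concentration that stops growth completely.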

Key:
Experiment in all cases: NCI-60 cell line screen, 48 h
[1] = test system: 786-0 renal
[2] = test system: A498 renal
[3] = test system: A549 NSCLC
[4] = test system: ACHN renal
[5] = test system: BT-549 breast
[6] = test system: CAKI-1 renal
[7] = test system: CCRF-CEM leukemia
[8] = test system: COLO 205 colon
[9] = test system: DU-145 prostate
[10] = test system: EKVX NSCLC
[11] = test system: HCC-2998 colon
[12] = test system: HCT-116 colon
[13] = test system: HCT-15 colon
[14] = test system: HL-60(TB) leukemia
[15] = test system: HOP-62 NSCLC
[16] = test system: HOP-92 NSCLC
[17] = test system: HS 578T breast
[18] = test system: HT29 colon
[19] = test system: IGROV1 ovarian
[20] = test system: K-562 leukemia
[21] = test system: KM12 colon
[22] = test system: LOX IMVI melanoma
[23] = test system: M14 melanoma
[24] = test system: MALME-3M melanoma
[25] = test system: MCF7 breast
[26] = test system: MDA-MB-231 breast
[27] = test system: MDA-MB-435
[28] = test system: MOLT-4 leukemia
[29] = test system: NCI-H226 lung
[30] = test system: NCI-H23 lung
[31] = test system: NCI-H460 lung
[32] = test system: NCI-H522 lung
[33] = test system: NCI/ADR-RES ovarian
[34] = test system: OVCAR-3 ovarian
[35] = test system: OVCAR-4 ovarian
[36] = test system: OVCAR-5 ovarian
[37] = test system: OVCAR-8 ovarian
[38] = test system: PC-3 prostate
[39] = test system: RPMI-8226 leukemia
[40] = test system: RXF 393 renal
[41] = test system: SF-268 CNS
[42] = test system: SF-295 CNS
[43] = test system: SF-539 CNS
[44] = test system: SK-MEL-2 melanoma
[45] = test system: SK-MEL-28 melanoma
[46] = test system: SK-MEL-5 melanoma
[47] = test system: SK-OV-3 ovarian
[48] = test system: SN12C renal
[49] = test system: SNB-19 CNS
[50] = test system: SNB-75 CNS
[51] = test system: SR leukemia
[52] = test system: SW-620 colon
[53] = test system: T-47D breast
[54] = test system: TK-10 renal
[55] = test system: U251 CNS
[56] = test system: UACC-257 melanoma
[57] = test system: UACC-62 melanoma
[58] = test system: UO-31 renal

CCN1C(=O)N(CC)C2C1NN=c1s/c(=C\c3ccc(Br)cc3)c(=O)n12 (configuration not stated)
GI50 [1]: 163 nM
TGI [1]: > 100 µM
GI50 [2]: 83.3 nM
TGI [2]: > 100 µM
GI50 [3]: 313 nM
TGI [3]: > 100 µM
GI50 [4]: 249 nM
TGI [4]: > 100 µM
GI50 [5]: 196 nM
TGI [5]: 16.4 µM
GI50 [6]: 65 nM
TGI [6]: > 100 µM
GI50 [7]: 246 nM
TGI [7]: > 33.1 µM
GI50 [8]: 258 nM
GI50 [9]: 352 nM
TGI [9]: > 100 µM
GI50 [10]: 502 nM
TGI [10]: > 100 µM
GI50 [11]: 349 nM
TGI [11]: > 100 µM
GI50 [12]: 107 nM
TGI [12]: > 100 µM
GI50 [13]: 59.8 nM
TGI [13]: > 100 µM
GI50 [14]: 107 nM
TGI [14]: 1430 nM
GI50 [15]: 305 nM
TGI [15]: > 100 µM
GI50 [16]: 36.5 nM
TGI [16]: > 63.7 µM
GI50 [17]: 194 nM
TGI [17]: > 100 µM
GI50 [18]: 75.7 nM
TGI [18]: > 100 µM
GI50 [19]: 275 nM
TGI [19]: > 82.2 µM
GI50 [20]: 45.3 nM
TGI [20]: > 100 µM
GI50 [21]: 60.4 nM
TGI [21]: > 100 µM
GI50 [22]: 185 nM
TGI [22]: > 100 µM
GI50 [23]: 138 nM
TGI [23]: > 100 µM
GI50 [24]: 2390 nM
TGI [24]: > 100 µM
GI50 [25]: 44.3 nM
TGI [25]: > 100 µM
GI50 [26]: 306 nM
TGI [26]: > 76.6 µM
GI50 [27]: 25.2 nM
TGI [27]: 70.6 nM
GI50 [28]: 392 nM
TGI [28]: > 100 µM
TGI [29]: > 100 µM
GI50 [30]: 422 nM
TGI [30]: > 100 µM
GI50 [31]: 119 nM
TGI [31]: > 100 µM
GI50 [32]: 55.8 nM
GI50 [33]: 62.6 nM
TGI [33]: > 100 µM
GI50 [34]: 102 nM
TGI [34]: > 100 µM
GI50 [35]: 388 nM
TGI [35]: > 100 µM
GI50 [36]: 583 nM
TGI [36]: > 100 µM
GI50 [37]: 416 nM
TGI [37]: > 100 µM
GI50 [38]: 168 nM
TGI [38]: > 100 µM
GI50 [39]: 269 nM
GI50 [40]: 147 nM
TGI [40]: > 100 µM
GI50 [41]: 852 nM
TGI [41]: > 100 µM
GI50 [42]: 73.8 nM
TGI [42]: > 100 µM
GI50 [43]: 75.9 nM
TGI [43]: 5.87 µM
GI50 [44]: 4.91 µM
TGI [44]: > 100 µM
GI50 [45]: > 53.8 µM
TGI [45]: > 100 µM
GI50 [46]: 118 nM
TGI [46]: 1840 nM
GI50 [47]: 1840 nM
TGI [47]: > 100 µM
GI50 [48]: 512 nM
TGI [48]: > 100 µM
GI50 [49]: 346 nM
TGI [49]: > 100 µM
GI50 [50]: 80.8 nM
TGI [50]: > 100 µM
GI50 [51]: 40 nM
TGI [51]: > 100 µM
GI50 [52]: 76.2 nM
TGI [52]: > 100 µM
GI50 [53]: 5.11 µM
TGI [53]: > 100 µM
GI50 [54]: 741 nM
TGI [54]: > 100 µM
GI50 [55]: 180 nM
TGI [55]: > 54.2 µM
GI50 [56]: 849 nM
TGI [56]: > 100 µM
GI50 [57]: 55.7 nM
TGI [57]: > 100 µM
GI50 [58]: 1510 nM
TGI [58]: > 100 µM
